Experiments:
[1] = system: CEM (human lymphoblastoid leukemia); assay: In vitro cytotoxic activity, Calcein AM; type: cell-based; details: Homo sapiens, 72 h, three days
Procedure: We have been using the following cell lines: HELA (human cervical carcinoma), MCF7 (human breast adenocarcinoma), NIH 3T3 (mouse fibroblasts), HOS (human osteogenic sarcoma), HL 60 (human promyelocytic leukemia), G 361 (human malignant melanoma), K562 (human erythroleukemia), CEM (human lymphoblastoid leukemia). Tested drugs were added to the cell cultures in six different concentration and kept at 37° C. and 5% CO2 for three days. All cell lines were grown in DMEM medium (Gibco BRL) supplemented with 10% (v/v) fetal bovine serum and L-glutamine and maintained at 37° C. in a humidified atmosphere with 5% CO2. 10^4 cells were seeded into each well of 96 well plate, allowed to stabilize for at least 2 h and then tested compounds were added at various concentrations ranging from 200 to 0.2 μM in triplicates. Three days after drug addition Calcein AM solution (Molecular Probes) was added and let to enter the cells for 1 hour. Fluorescence of viable cells was quantified employing Fluoroskan Ascent (Microsystems).

[2] = system: B16; assay: In vitro cytotoxic activity, Calcein AM; type: cell-based; details: Mus musculus, B16, 72 h, three days

Q: Which GI50 [1] does the source give for `CC(C)c1n[nH]c2c(Nc3ccc(C(=O)O)c(Cl)c3)nc(N[C@@H](CO)C(C)C)nc12` here?
A: 7.6 µM

Q: What about the GI50 [2] of the same molecule?
A: 12.4 µM

Q: What does the source list for `CC[C@H](CO)Nc1nc(NCc2c(O)cc(OC)cc2O)c2[nH]nc(C(C)C)c2n1`?
A: GI50 [1]: 1.8 µM; GI50 [2]: 3.4 µM

Q: `CC(C)c1n[nH]c2c(Nc3ccccc3)nc(N[C@@H](CO)C(C)C)nc12` was tested. Which GI50 [1] did it give?
A: 2.5 µM

Q: What about the GI50 [2] of the same molecule?
A: 3.6 µM

Q: Which GI50 [1] does the source give for `CC(C)c1n[nH]c2c(NCc3cccc(Cl)c3O)nc(N[C@@H](CO)C(C)C)nc12` here?
A: 0.7 µM

Q: And the GI50 [2]?
A: 1.1 µM

Q: Which GI50 [1] does the source give for `CC(C)c1n[nH]c2c(Nc3ccc(Cl)c(C(=O)O)c3)nc(N[C@@H](CO)C(C)C)nc12` here?
A: 5.8 µM

Q: And the GI50 [2]?
A: 9.1 µM

Q: Which GI50 [1] does the source give for `CC(C)c1n[nH]c2c(NCc3cc(O)c(Cl)cc3O)nc(N[C@@H](CO)C(C)C)nc12` here?
A: 1.3 µM

Q: What about the GI50 [2] of the same molecule?
A: 2.7 µM

Q: Which results are given for `CC(C)c1n[nH]c2c(Nc3ccc(Br)cc3)nc(N[C@@H](CO)C(C)C)nc12`?
A: GI50 [1]: 5.8 µM; GI50 [2]: 11.4 µM

Q: Which results are given for `Cc1cccc(CNc2nc(N[C@@H](CO)C(C)C)nc3c(C(C)C)n[nH]c23)c1O`?
A: GI50 [1]: 1.2 µM; GI50 [2]: 3.5 µM

Q: How did the GI50 [1] turn out when `CC[C@H](CO)Nc1nc(Nc2ccc(Cl)c(C(=O)O)c2)c2[nH]nc(C(C)C)c2n1` was run?
A: 4.5 µM

Q: And the GI50 [2]?
A: 5.2 µM

Q: What does the source list for `CC[C@H](CO)Nc1nc(Nc2ccc(N)c(Cl)c2)c2[nH]nc(C(C)C)c2n1`?
A: GI50 [1]: 12.2 µM; GI50 [2]: 19.6 µM

Q: With `CC[C@H](CO)Nc1nc(Nc2ccc(Br)cc2)c2[nH]nc(C(C)C)c2n1` as the molecule, how does the GI50 [1] read?
A: 6.5 µM

Q: What about the GI50 [2] of the same molecule?
A: 9.8 µM

Q: What does the source list for `CC[C@H](CO)Nc1nc(Nc2ccc(Cl)cc2)c2[nH]nc(C(C)C)c2n1`?
A: GI50 [1]: 6.7 µM; GI50 [2]: 9.5 µM

Q: Which results are given for `CC(C)c1n[nH]c2c(Nc3ccc(O)c(C(=O)O)c3)nc(N[C@@H](CO)C(C)C)nc12`?
A: GI50 [1]: 2.7 µM; GI50 [2]: 4.2 µM

Q: For `CC[C@H](CO)Nc1nc(Nc2ccc(C(=O)O)c(Cl)c2)c2[nH]nc(C(C)C)c2n1`, which GI50 [1] is on record?
A: 7.9 µM

Q: What about the GI50 [2] of the same molecule?
A: 11.2 µM

Q: `COc1ccc(CNc2nc(N[C@@H](CO)C(C)C)nc3c(C(C)C)n[nH]c23)c(O)c1O` was tested. Which GI50 [1] did it give?
A: 0.6 µM

Q: What about the GI50 [2] of the same molecule?
A: 2.5 µM

Q: `CC(C)c1n[nH]c2c(Nc3ccc(N)c(Cl)c3)nc(N[C@@H](CO)C(C)C)nc12` was tested. Which GI50 [1] did it give?
A: 2.5 µM

Q: What about the GI50 [2] of the same molecule?
A: 4.8 µM

Q: Which GI50 [1] does the source give for `CC(C)c1n[nH]c2c(NCc3c(O)cc(Cl)cc3O)nc(N[C@@H](CO)C(C)C)nc12` here?
A: 0.4 µM

Q: What about the GI50 [2] of the same molecule?
A: 1.2 µM

Q: With `CC(C)c1n[nH]c2c(NCc3ccc(Cl)c(O)c3O)nc(N[C@@H](CO)C(C)C)nc12` as the molecule, how does the GI50 [1] read?
A: 0.9 µM

Q: And the GI50 [2]?
A: 1.4 µM

Q: `Cc1n[nH]c2c(NC(CO)c3ccccc3)nc(NCCO)nc12` (racemic) was tested. Which GI50 [1] did it give?
A: 8.9 µM

Q: What about the GI50 [2] of the same molecule?
A: 9.4 µM

Q: What does the source list for `COc1cc(O)c(CNc2nc(N[C@@H](CO)C(C)C)nc3c(C(C)C)n[nH]c23)cc1O`?
A: GI50 [1]: 1.7 µM; GI50 [2]: 2.5 µM

Q: For `CC(C)c1n[nH]c2c(NCc3cccc(O)c3)nc(N[C@@H](CO)C(C)C)nc12`, which GI50 [1] is on record?
A: 4.9 µM

Q: What about the GI50 [2] of the same molecule?
A: 8.5 µM

Q: For `CC(C)c1n[nH]c2c(Nc3ccc(Cl)cc3)nc(N[C@@H](CO)C(C)C)nc12`, which GI50 [1] is on record?
A: 4.1 µM

Q: And the GI50 [2]?
A: 5.7 µM

Q: `CC(C)c1n[nH]c2c(NCc3ccccc3O)nc(N[C@@H](CO)C(C)C)nc12` was tested. Which GI50 [1] did it give?
A: 6.7 µM

Q: What about the GI50 [2] of the same molecule?
A: 9.8 µM

Q: Which results are given for `CC(C)c1n[nH]c2c(Nc3ccc(Cl)c(N)c3)nc(N[C@@H](CO)C(C)C)nc12`?
A: GI50 [1]: 2.9 µM; GI50 [2]: 4.4 µM

Q: For `CC(C)c1n[nH]c2c(NCc3ccc(Cl)c(N)c3)nc(N[C@@H](CO)C(C)C)nc12`, which GI50 [1] is on record?
A: 2.6 µM

Q: What about the GI50 [2] of the same molecule?
A: 4.4 µM

Q: How did the GI50 [1] turn out when `CC(C)c1n[nH]c2c(NCc3c(N)cccc3Cl)nc(N[C@@H](CO)C(C)C)nc12` was run?
A: 1.5 µM

Q: And the GI50 [2]?
A: 2.5 µM

Q: Which results are given for `CC(=O)Oc1cccc(CNc2nc(N[C@@H](CO)C(C)C)nc3c(C(C)C)n[nH]c23)c1`?
A: GI50 [1]: 12.5 µM; GI50 [2]: 14.6 µM
